Source: US20180320177A1, “COMPOSITIONS AND METHODS FOR THE TREATMENT OF LIVER FIBROSIS” (UNIVERSITY OF CONNECTICUT, priority 2015, published 2018)
Entries after “also recorded” stand apart in the source; their conditions may differ.

Columns and labels:
[1] = tested on: pAKT and pERK1/2 activation; experiment: pAKT and pERK1/2 activation and HMGB2 protein in primary stellate cells; format: cell-based, mouse; details: stellate cells (FIG. 6E)
Experimental: Western Blotting: Total protein lysates were prepared from livers and cells in lysis buffer containing 50 mM Tris, pH 8.0, 1% Nonidet™ P-40, 150 mM NaCl, 0.5% sodium deoxycholate, 0.1% SDS with protease inhibitors (Thermo Fisher Scientific) and subjected to immunoblotting. Nuclear and cytoplasmic subcellular fractions were prepared using NE-PER nuclear and cytoplasmic extraction reagents (Pierce) according to the manufacturer's instructions. The blot was incubated with a primary antibody, followed by a secondary antibody conjugated to horseradish peroxidase. ECL kit (Pierce) was used to detect the reactivity. The following antibodies were obtained from Cell Signaling Technology: HMGB2, HMGB1, AKT, p-AKT, mTOR, p-mTOR, ERK1/2, pERK1/2, Raptor, Rictor, p53, p21, p-Bad, Smad4, p-Smad2/3, Lamin A/C, a-SMA, MMP2, MMP9, TIMP1, RhoA, Rho-GTP, Cdc42, Rac1/2/3. Anti-HA antibody and anti-beta actin antibody were purchased from Sigma and Santa Cruz Biotechnology, respectively.
Primary Mouse Hepatic Stellate Cells (HSCs) isolation and in vitro activation: Primary mouse HSCs were isolated from 8 to 12 weeks old wild type or Hmgb2^−/− mice, as described in the art with modifications. Briefly, mice were anesthetized with ketamine/xylazine mixture. The liver was perfused with Hank's balanced salt solution (HBSS) supplemented with 0.5 mM EGTA through the cannulated portal vein, followed by perfusion with HBSS supplemented with 0.5 mg/ml pronase (Sigma) and HBSS with 0.14 mg/ml collagenase (Sigma). The liver was dissected out from the mouse and dissociated cells were dispersed gently in HBSS. Primary HSC was isolated by three-layer discontinuous density gradient centrifugation with 25% and 50% percoll (Sigma) and plated on non-coated culture dishes in DMEM supplemented with 10% FBS, 100 IU/ml penicillin, and 100 μg/ml streptomycin. For culture-activated HSC studies, the medium of primary HSCs was replaced every day up to 7 days. For PDGF treatment, primary HSC cells were serum starved for 24 hr and then treated with PDFG for 3 or 5 days. […]

HMGB2 protein = molecular target: T1, HMGB2 protein (Mus musculus, UniProt P30681); experiment: Western blot of HMGB2 protein in liver of CCl4-treated mice; format: in vivo
T1 construct: Total protein lysates were prepared from livers and cells in lysis buffer; from tissue; host or cells: mouse liver (C57BL/6J, CCl4 with or without ICM)
T1 sequence (P30681 1-210): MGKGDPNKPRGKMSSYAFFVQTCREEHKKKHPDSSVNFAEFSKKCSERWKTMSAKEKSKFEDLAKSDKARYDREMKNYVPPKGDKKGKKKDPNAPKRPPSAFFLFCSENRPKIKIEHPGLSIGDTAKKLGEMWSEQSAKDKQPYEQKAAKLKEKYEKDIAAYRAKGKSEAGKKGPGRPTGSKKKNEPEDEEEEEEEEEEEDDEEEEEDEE
Experimental: Animal Care: All animal care and experimental procedures were approved by the Institutional Animal Care and Use Committee at the University of Connecticut. Shp^−/− mice were described previously. Hmgb2^−/− mice were obtained from Dr. Stella Tsirka at Stony Brook University. C57BL/6J mice were purchased from Jackson Laboratory. All mice were maintained on a 12-h light/dark cycle with free access to food and water unless otherwise indicated. For CCl4 treatment, CCl4 (Sigma) was dissolved in corn oil and administered to mice at a dose of 850 μl/kg BW by intraperitoneal injection (IP) twice a week for 6 or 10 weeks with or without ICM. Age-matched control mice were treated with a corn oil vehicle. For CCl4+ICM treatment, mice were treated with CCl4 for 2 weeks and then ICM (Department of Pharmaceutical Sciences at UConn) was dissolved in PEG (Sigma) and treated with mice (10 mg/kg) every day for 4 or 8 weeks in combination with CCl4. To induce overexpression of HMGB2 in liver, AAV8-Hmgb2 or a control AAV8-GFP was given to mice by tail vein injection at a dose of 5×10^10 GC. To knockdown HMGB2 in mouse livers, AAV-shHmgb2 or a control AAV-shGFP was delivered to mice at a dose of 2×10^10 GC by tail vein injection. One week later, mice injected with AAVs were treated with CCl4 or CCl4 +ICM as described above and sacrificed. […]

TIC cells = experiment: TIC cell spheroid assay; format: cell-based; details: TIC cells with stable HMGB2 knockdown (FIG. 7F)
Experimental: TIC cells were trypsinized into single cells and 1000 cells were suspended in serum free TIC medium with 1% methylcellulose supplemented with B27, 20 ng/ml EGF and 20 ng/ml FGF in each well of 96-well ultralow attachment plate.

With CC1(C)Oc2cc(O)ccc2C2C1=CCn1c(=O)n(-c3ccccc3)c(=O)n12 (stereo not drawn) [ICM, inflachromene] the HMGB2 protein [1] was “reduces”, the pAKR activation [1] was “reduces” and the pERk1/2 activation [1] was “reduces”. For the same compound, the “liver HMGB2 protein induced by CCl4” value (HMGB2 protein; CCl4 mice treated with ICM, Western blot) was “decreases; also recorded: blocked by ICM; also recorded: reduction in liver HMGB2 protein” and the “selectivity HMGB2 protein versus HMGB1 protein” value (HMGB2 protein; mouse liver, CCl4+ICM (FIG. 16)) was “more selective to downregulate HMGB2 protein”.

“shHMGB2: small hairpin RNA against HMGB2 (SEQ ID NO: 8), delivered by AAV or lentivirus (CCGGGCTCAACATTAGCTTCAGTATCTCGAGATACTGAAGCTAATGTTGAGCTTTTTG)” was tested, and the spheroid size (TIC cells) was “decreased spheroid size”.
